pIC50, pKi: −log10 of the molar value.
What was measured:
hCA II = hCA II (Homo sapiens, UniProt P00918); test: Stopped flow CO2 hydrase assay
hCA IX = hCA IX (Homo sapiens, UniProt Q16790); test: Stopped flow CO2 hydrase assay; details: for Selectivity ratio I/IX: Ki hCA I / Ki hCA IX; for Selectivity ratio II/IX: Ki hCA II / Ki hCA IX
hCA XII = hCA XII (Homo sapiens, UniProt O43570); test: Stopped flow CO2 hydrase assay; details: for Selectivity ratio I/XII: Ki hCA I / Ki hCA XII; for Selectivity ratio II/XII: Ki hCA II / Ki hCA XII
Sequence of hCA XII (O43570 25-354): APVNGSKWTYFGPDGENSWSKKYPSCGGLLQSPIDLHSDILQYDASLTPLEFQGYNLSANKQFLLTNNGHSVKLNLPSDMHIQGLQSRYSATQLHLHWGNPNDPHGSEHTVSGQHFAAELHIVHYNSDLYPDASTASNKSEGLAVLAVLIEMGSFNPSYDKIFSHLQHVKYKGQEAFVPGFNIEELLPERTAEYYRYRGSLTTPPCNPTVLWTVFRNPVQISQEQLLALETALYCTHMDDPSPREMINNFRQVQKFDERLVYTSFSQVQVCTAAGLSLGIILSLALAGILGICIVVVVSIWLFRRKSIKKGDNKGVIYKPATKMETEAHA

hCA I = hCA I (Homo sapiens, UniProt P00915); test: Stopped flow CO2 hydrase assay
Sequence of hCA I (P00915 whole entry): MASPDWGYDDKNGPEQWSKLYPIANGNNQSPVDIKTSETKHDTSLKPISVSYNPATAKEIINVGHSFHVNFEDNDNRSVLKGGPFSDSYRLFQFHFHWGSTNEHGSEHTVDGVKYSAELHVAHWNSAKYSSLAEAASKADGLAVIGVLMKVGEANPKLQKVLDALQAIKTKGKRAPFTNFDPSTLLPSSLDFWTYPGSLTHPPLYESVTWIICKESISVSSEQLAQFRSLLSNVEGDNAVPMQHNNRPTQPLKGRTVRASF

[1] = Fig. 2; read-out: cytotoxicity average IC50; cited from earlier work
UO-31 = test: NCI-60 single-dose antiproliferative assay (SRB); type: cell-based, human; details: Homo sapiens, UO-31, 10 μM single dose; UO-31, Renal cancer; read-out: Cell Growth inhibition Percent
Method: (§1) From the newly synthesized compounds, eleven compounds (4c, 4d, 5, 9a, 9b, 11a, 11b, 13b, 13c, 15b, and 15c) were selected by the National Cancer Institute (NCI) Developmental Therapeutics Program (DTP), Bethesda, Maryland, USA for the in vitro anti-proliferative activity evaluation. The selected compounds were examined at 10 μM dose against the NCI 60-cell line panel. This panel consists of nine cell line groups of leukemia, non-small cell lung carcinoma (NSCLC), melanoma, colon, CNS, ovarian, renal, prostate, and breast cancers. The results are reported as mean-graph of the percent growth relative to control and presented as percentage growth inhibition (GI%), furthermore, mean GI% of each compound over all panel cell lines was calculated (Table 1; Additional file 1; S3: In vitro biological activity).
(§2) From the newly synthesized compounds, eleven compounds were selected by the National Cancer Institute (NCI) Developmental Therapeutics Program (DTP), Bethesda, Maryland, USA for the in vitro anti-proliferative activity evaluation (For further details see supplementary materials).
(§3) NCI In-vitro Cancer Screening is a two-phase procedure that starts with the assessment of all compounds against the sixty NCI cell line panel depicting leukemia, NSCLC, CNS cancer, melanoma, prostate cancer, breast cancer, renal cancer, colon cancer and ovarian cancer cell lines at a single point of 10μM. The output from the single-dose screen is reportable as a mean graph.
(§4) The human tumor cell lines of the cancer screening panel were grown in RPMI 1640 medium containing 5% fetal bovine serum and 2 mM L-glutamine. For a typical screening experiment, cells were inoculated into 96 well microtiter plates in […] at plating densities ranging from 5000 to 40,000 cells/well depending on the doubling time of individual cell lines. After cell inoculation, the microtiter plates were incubated at 37 °C, 5% CO2, 95% air and 100% relative humidity for 24 h prior to addition of experimental drugs. After 24 h, two plates of each cell line were fixed in situ with trichloroacetic acid (TCA), to represent a measurement of the cell population for each cell line at the time of drug addition (Tz). Experimental drugs were solubilized in dimethyl sulfoxide at 400-fold the desired final maximum test concentration and stored frozen prior to use. At the time of drug addition, an aliquot of frozen concentrate was thawed and diluted to twice the desired final maximum test concentration with complete medium containing 50 µg/ml gentamicin. Aliquot of 100 µl of the drug dilution was added to the appropriate microtiter wells already containing 100 µl of medium, resulting in the required final drug concentration (10 µM). Triplicate wells were prepared for each individual dose. Following drug addition, the plates were incubated for an additional 48 h at 37 °C, 5% CO2, 95% air, and 100% relative humidity. For adherent cells, the assay was terminated by the addition of cold TCA. Cells were fixed in situ by the gentle addition of 50 µl of cold 50% (w/v) TCA (final concentration, 10% TCA) and incubated for 60 min at 4 °C. The supernatant was discarded, and the plates were washed five times with tap water and air dried. Sulforhodamine B (SRB) solution (100 µl) at 0.4% (w/v) in 1% acetic acid was added to each well, and plates were incubated for 10 min at room temperature. After staining, unbound dye was removed by washing five times with 1% acetic acid and the plates were air dried. Bound stain was subsequently solubilized with 10 mM trizma base, and the absorbance was read on an automated plate reader at a wavelength of 515 nm. For suspension cells, the methodology was the same except that the assay was terminated by fixing settled cells at the bottom of the wells by gently adding 50 µl of 80% TCA (final concentration, 16% TCA). […]

K-562 = test: NCI-60 single-dose antiproliferative assay (SRB); type: cell-based; details: Homo sapiens, K562; 10 μM single dose; K-562, Leukemia; read-out: Cell Growth inhibition Percent
Method: as §1, §2, §3, §4

EKVX = test: NCI-60 single-dose antiproliferative assay (SRB); type: cell-based; details: Homo sapiens, 10 μM single dose, Non-small cell lung cancer, read-out: Cell Growth inhibition Percent
Method: as §1, §2, §3, §4

SR = test: NCI-60 single-dose antiproliferative assay (SRB); type: cell-based; details: Homo sapiens, 10 μM single dose, Leukemia, read-out: Cell Growth inhibition Percent
Method: as §1, §2, §3, §4

CAKI-1 = test: NCI-60 single-dose antiproliferative assay (SRB); type: cell-based; details: Homo sapiens; 10 μM single dose; CAKI-1, Renal cancer; read-out: Cell Growth inhibition Percent
Method: as §1, §2, §3, §4

NCI-H226 = test: NCI-60 single-dose antiproliferative assay (SRB); type: cell-based; details: Homo sapiens; 10 μM single dose; NCI-H226, Non-small cell lung cancer; read-out: Cell Growth inhibition Percent
Method: as §1, §2, §3, §4

NCI-H522 = test: NCI-60 single-dose antiproliferative assay (SRB); type: cell-based; details: Homo sapiens; 10 μM single dose; NCI-H522, Non-small cell lung cancer; read-out: Cell Growth inhibition Percent
Method: as §1, §2, §3, §4

HOP-92 = test: NCI-60 single-dose antiproliferative assay (SRB); type: cell-based; details: Homo sapiens; 10 μM single dose; HOP-92, Non-small cell lung cancer; read-out: Cell Growth inhibition Percent
Method: as §1, §2, §3, §4

SNB-75 = test: NCI-60 single-dose antiproliferative assay (SRB); type: cell-based; details: Homo sapiens; 10 μM single dose; SNB-75, CNS cancer; read-out: Cell Growth inhibition Percent
Method: as §1, §2, §3, §4

HCT-15 = test: NCI-60 single-dose antiproliferative assay (SRB); type: cell-based; details: Homo sapiens; 10 μM single dose; HCT-15, Colon cancer; read-out: Cell Growth inhibition Percent
Method: as §1, §2, §3, §4

SN12C = test: NCI-60 single-dose antiproliferative assay (SRB); type: cell-based; details: Homo sapiens, 10 μM single dose, Renal cancer, read-out: Cell Growth inhibition Percent
Method: as §1, §2, §3, §4

MCF7 = test: NCI-60 single-dose antiproliferative assay (SRB); type: cell-based; details: Homo sapiens; 10 μM single dose; MCF7, Breast cancer; read-out: Cell Growth inhibition Percent
Method: as §1, §2, §3, §4

SK-MEL-5 = test: NCI-60 single-dose antiproliferative assay (SRB); type: cell-based; details: Homo sapiens; 10 μM single dose; SK-MEL-5, Melanoma; read-out: Cell Growth inhibition Percent
Method: as §1, §2, §3, §4

NCI-H23 = test: NCI-60 single-dose antiproliferative assay (SRB); type: cell-based; details: Homo sapiens; 10 μM single dose; NCI-H23, Non-small cell lung cancer; read-out: Cell Growth inhibition Percent
Method: as §1, §2, §3, §4

PC-3 = test: NCI-60 single-dose antiproliferative assay (SRB); type: cell-based; details: Homo sapiens; 10 μM single dose; PC-3, Prostate cancer; read-out: Cell Growth inhibition Percent
Method: as §1, §2, §3, §4

HCT-116 = test: NCI-60 single-dose antiproliferative assay (SRB); type: cell-based; details: Homo sapiens; 10 μM single dose; HCT-116, Colon cancer; read-out: Cell Growth inhibition Percent
Method: as §1, §2, §3, §4

T-47D = test: NCI-60 single-dose antiproliferative assay (SRB); type: cell-based; details: Homo sapiens, T47D, 10 μM single dose, Breast cancer, read-out: Cell Growth inhibition Percent
Method: as §1, §2, §3, §4

HOP-62 = test: NCI-60 single-dose antiproliferative assay (SRB); type: cell-based; details: Homo sapiens; 10 μM single dose; HOP-62, Non-small cell lung cancer; read-out: Cell Growth inhibition Percent
Method: as §1, §2, §3, §4

KM12 = test: NCI-60 single-dose antiproliferative assay (SRB); type: cell-based; details: Homo sapiens; 10 μM single dose; KM12, Colon cancer; read-out: Cell Growth inhibition Percent
Method: as §1, §2, §3, §4

Row | SMILES | pKi (hCA II) | pKi (hCA IX) | pKi (hCA XII) | pKi (hCA I) | melting point | Selectivity ratio I/IX (hCA IX) | Selectivity ratio II/IX (hCA IX) | Selectivity ratio I/XII (hCA XII) | Selectivity ratio II/XII (hCA XII) | further results
1 | O=C1Nc2ccccc2C1=CNc1ccc(C(=O)Nc2nccs2)cc1 [Compound 9c, 4-{[(2-Oxoindolin-3-ylidene)methyl]amino}-N-(thiazol-2-yl)benzamide] | < 5.00 | < 5.00 | < 5.00 | < 5.00 | > 300 °C |  |  |  |  | 
2 | O=C1Nc2ccc(Cl)cc2/C1=N/Nc1nc(-c2ccccc2)cs1 [XIV] |  |  |  |  |  |  |  |  |  | pIC50 [1]: 5.33
3 | O=C1Nc2ccccc2C1=CNc1ccc(S(=O)(=O)Nc2ncccn2)cc1 [Compound 4b, 4-{[(2-Oxoindolin-3-ylidene)methyl]amino}-N-(pyrimidin-2-yl)benzenesulfonamide] | < 5.00 | < 5.00 | < 5.00 | < 5.00 | 238 to 240 °C |  |  |  |  | 
4 | NS(=O)(=O)c1ccc(NC(=O)Nc2ccc(NC=C3C(=O)Nc4ccccc43)cc2)cc1 [Compound 15a, 4-{3-[4-({[2-Oxoindolin-3-ylidene]methyl}amino)phenyl]ureido}benzenesulfonamide] | 6.12 | 6.06 | 6.76 | 6.07 |  | 0.98 | 0.88 | 4.83 | 4.36 | 
5 | O=C1Nc2ccccc2C1=CNC1=NS(=O)(=O)c2ccccc21 [Compound 4a, 3-{[(1,1-Dioxidobenzo[d]isothiazol-3-yl)amino]methylene}indolin-2-one] | 5.05 | < 5.00 | < 5.00 | < 5.00 | 195 to 199 °C |  |  |  |  | 
6 | O=C(Nc1ccc(NC=C2C(=O)Nc3ccccc32)cc1)Nc1ccc(S(=O)(=O)Nc2ncccn2)cc1 [Compound 15b, 4-{3-[4-({[2-Oxoindolin-3-ylidene]methyl}amino)phenyl]ureido}-N-(pyrimidin-2-yl)benzenesulfonamide] | < 5.00 | < 5.00 | < 5.00 | < 5.00 | > 300 °C |  |  |  |  | inhibition at 10 µM (UO-31): 18.3%; inhibition at 10 µM (K-562): 2.05%; inhibition at 10 µM (EKVX): 1.92%; inhibition at 10 µM (SR): 3.55%; inhibition at 10 µM (CAKI-1): 5.21%; inhibition at 10 µM (NCI-H226): 3.3%; inhibition at 10 µM (NCI-H522): 4.97%; inhibition at 10 µM (HOP-92): 5.79%; inhibition at 10 µM (SNB-75): 1.02%; inhibition at 10 µM (HCT-15): 2.59%; inhibition at 10 µM (SN12C): 1.23%; inhibition at 10 µM (MCF7): 15%; inhibition at 10 µM (SK-MEL-5): 0.02%; inhibition at 10 µM (NCI-H23): 72.8%; inhibition at 10 µM (PC-3): 5.91%; inhibition at 10 µM (HCT-116): 7.3%; inhibition at 10 µM (T-47D): 7.81%; inhibition at 10 µM (HOP-62): 1.01%; inhibition at 10 µM (KM12): 49.1%
7 | O=C1Nc2ccccc2C1=CNc1ccc(CNc2nccs2)cc1 [Compound 11c, 3-{[(4-((Thiazol-2-ylamino)methyl)phenyl)amino]methylene}indolin-2-one] | < 5.00 | < 5.00 | < 5.00 | < 5.00 | 150 to 153 °C |  |  |  |  | 
8 | NS(=O)(=O)OC=C1C(=O)Nc2ccccc21 [Compound 7, (2-Oxoindolin-3-ylidene)methyl sulfamate] | 5.25 | 6.03 | 6.88 | 5.21 | 165 to 170 °C | 6.63 | 5.93 | 46.89 | 41.97 | 
9 | NS(=O)(=O)c1ccc(NC=CC(=O)c2ccc(NC=C3C(=O)Nc4ccccc43)cc2)cc1 [Compound 13a, 4-{[-3-Oxo-3-(4-{[(-2-oxoindolin-3-ylidene)methyl]amino}phenyl)prop-1-en-1-yl]amino}benzenesulfonamide] | 6.51 | 7.04 | 6.74 | 6.32 | 275 to 278 °C | 5.29 | 3.36 | 2.64 | 1.68 | 

Reference: PMC10353187, “Discovery of a new potent oxindole multi-kinase inhibitor among a series of designed 3-alkenyl-oxindoles with ancillary carbonic anhydrase inhibitory activity as antiproliferative agents” (BMC Chemistry, 2023)
